Laboratory results taken from the RepoRT retention time repository (doi:10.1021/acs.analchem.1c00972).

Assay: RP, Waters ACQUITY UPLC BEH C18, 100 × 1 mm, 1.7 µm, 50 °C, 0.3 mL/min, estimated dead time 0.17 min; A: water + 0.1% formic acid + 20 mM ammonium formate; B: methanol + 0.1% formic acid + 20 mM ammonium formate; gradient (min/%B) 0/0 15/100 21/100 22/0 30/0
Details: stereoisomer not certain

Row | Compound | LC retention time [min]
1 | CC(=NC#N)N(C)Cc1ccc(Cl)nc1 [Acetamiprid] | 9.33
2 | O=C(O)CCCCCCC(=O)O [Suberic_acid] | 9.6
3 | CC(C)(C)C(=O)C(Oc1ccc(Cl)cc1)n1cncn1 (centres undefined) [Triadimefon] | 14.5
4 | c1ccc2c(c1)Nc1ccccc1S2 [Phenothiazine] | 14.9
5 | Cc1cccc(C)c1N(Cn1cccn1)C(=O)CO [Metazachlor-OH-deschloro] | 11.1
6 | COCCOCCO [Diethyleneglycolmonomethylether] | 5.03
7 | NC(=O)N=C1SCCN1Cc1ccc(Cl)nc1 [Thiacloprid amide] | 8.82
8 | CC(=O)c1ccc(N)cc1 [4-aminoacetophenone] | 2.5
9 | CCCCCC(=O)OC1(C(C)=O)CCC2C3CCC4=CC(=O)CCC4C3CCC21C (centres undefined) [Gestonorone capronate] | 16.7
10 | CCC(C(=O)O)C1CCC(C)C(C(C)C(O)C(C)C(=O)C(CC)C2OC3(C=CC(O)C4(CCC(C)(C5CCC(O)(CC)C(C)O5)O4)O3)C(C)CC2C)O1 (centres undefined) [Salinomycin] | 18.4
11 | Oc1ccc(C2(c3ccc(O)cc3)CCCCC2)cc1 [Bisphenol Z] | 16
12 | COc1ccc2[nH]cc(CCNC(C)=O)c2c1 [Melatonin] | 9.71
13 | CCOc1cc(Oc2ccc(C(F)(F)F)cc2Cl)ccc1[N+](=O)[O-] [Oxyfluorfen] | 16.8
14 | O=C(O)c1cccc(Oc2cccc(C(F)(F)F)c2)n1 [Picolinafen-OH-O-dealkylation] | 14
15 | CNC(C)C(O)c1ccccc1 (centres undefined) [ephedrine] | 7.4
16 | O=C1CCC2(O)C3Cc4ccc(O)c5c4C2(CCN3CC2CC2)C1O5 (centres undefined) [Naltrexon] | 5.88
17 | CC(C)(c1ccccc1)c1cc(-n2nc3ccccc3n2)c(O)c(C(C)(C)c2ccccc2)c1 [UV-234] | 16.6
18 | Oc1ccc(C(=C(Cl)Cl)c2ccc(O)cc2)cc1 [Bisphenol C-dichloride] | 10.5
19 | CCOP(=O)(OCC)Oc1cc(C)nc(C(C)C)n1 [Diazoxon / Diazinon-oxon] | 15.7
20 | CCOP(=S)(OCC)Oc1cnc2ccccc2n1 [Quinalophos] | 15.3
21 | Cc1ccc(N)cc1Cl [3-Chloro-4-methylaniline] | 10.1

Row | Compound | LC retention time [min]
22 | CON(C)C(=O)Nc1ccc(Cl)cc1 [Monolinuron] | 12.2
23 | COc1ccc2c3c1OC1C(O)CCC4C(C2)N(C)CCC341 (centres undefined) [Dihydrocodein] | 6.74
24 | O=NNC1=NCCN1Cc1ccc(Cl)nc1 [Imidacloprid-nitrosoimine] | 7.84
25 | NCCc1ccc(OC2OC(C(=O)O)C(O)C(O)C2O)c(O)c1 (centres undefined) [dopamine_glucuronide] | 9.2
26 | CCOP(=O)(OCC)Oc1nc(Cl)c(Cl)cc1Cl [Chlorpyrifos-oxon] | 15.2
27 | OCCc1cccc(O)c1 [2-(3-Hydroxyphenyl)ethanol] | 2.8
28 | CC(C)OC(=O)Nc1cccc(Cl)c1 [Chlorpropham] | 14.4
29 | CCCCOc1cc(C(=O)NCCN(CC)CC)c2ccccc2n1 [Dibucaine] | 13
30 | CNCCC(Oc1ccc(C(F)(F)F)cc1)c1ccccc1 (centres undefined) [Fluoxetine] | 13.2
31 | Nc1nc(N)nc(-c2ccccc2)n1 [Benzoguanamine] | 7.87
32 | CC(C)C1CCC(Cc2ccc(Cl)cc2)C1(O)Cn1cncn1 (single isomer, unassigned; isomer 1) [Ipconazole (Isomer 1)] | 16.4
33 | CCC1(O)C(=O)OCc2c1cc1n(c2=O)Cc2cc3ccccc3nc2-1 (centres undefined) [Camptothecin] | 12
34 | Nc1ccc(Cl)c(Cl)c1 [3,4-Dichloroaniline] | 17.6
35 | CCNP(=S)(OC)OC(C)=CC(=O)OC(C)C (centres undefined) [Propetamphos] | 14.6
36 | NCCc1ccc(O)cc1 [tyramine] | 2.5
37 | COc1ccc2c3c1OC1C(OC4OC(C(=O)O)C(O)C(O)C4O)C=CC4C(C2)N(C)CCC341 (centres undefined) [codeine-6-glucuronide] | 11.4
38 | CCCC(C)(C)C(=O)Nc1ccc(Cl)cc1 [Monalide] | 15
39 | O=C1CCCCCCCCCCCN1 [Dodecane-12-lactam] | 14
40 | COC(=O)C(C)=COP(=S)(OC)OC [Methacrifos] | 12.1
41 | CC(C)Nc1nc(Cl)nc(NC(C)C)n1 [Propazin] | 14
42 | CC12CC1(C)C(=O)N(c1cc(Cl)cc(Cl)c1)C2=O (centres undefined) [Procymidone] | 14.6

Next, values leading:

Row | LC retention time [min] | Compound
43 | 13.8 | CC12CCC3C(=CCc4cc(O)ccc43)C1CCC2=O (centres undefined) [Equilin]
44 | 11.5 | CCOC(=O)C1=CC(OC(CC)CC)C(NC(C)=O)C(N)C1 (centres undefined) [Oseltamivir]
45 | 8.3 | CN(C)c1ccc(O)c2c1CC1CC3C(N(C)C)C(=O)C(C(N)=O)=C(O)C3(O)C(=O)C1=C2O (centres undefined) [Minocyclin]
46 | 7.48 | CCOc1ccc(NC(=O)OC(C)C)cc1OCC [Diethofencarb]
47 | 11.5 | O=[N+]([O-])c1ccc(C2OC2c2ccc([N+](=O)[O-])cc2S(=O)(=O)O)c(S(=O)(=O)O)c1 (centres undefined)
48 | 7.6 | CC(O)C(NC(=O)Nc1ncnc2c1ncn2C1OC(CO)C(O)C1O)C(=O)O (centres undefined) [N6-Threonylcarbamoyladenosine]
49 | 7 | OCCc1c[nH]c2ccccc12 [3-(2-Hydroxyethyl)indole]
50 | 18.2 | CCCCC(CC)COC(=O)C=Cc1ccc(OC)cc1 (centres undefined) [Octyl-methoxycinnamate]
51 | 12.3 | CCCCCCCC(O)CC(=O)O (centres undefined) [3-Hydroxycapric acid]
52 | 4.9 | NC1CCCCC1 [Cyclohexylamine]
53 | 6.7 | O=C(O)Cc1c[nH]c2ccc(O)cc12 [5-Hydroxyindole-3-acetic acid]
54 | 2.73 | O=S1(=O)CCCC1 [Sulfolane]
55 | 21.4 | CC(C)CCCC(C)C1CCC2C3CC=C4CC(O)CCC4(C)C3CCC12C (centres undefined) [Cholesterol]
56 | 11.7 | O=C(O)CCc1c[nH]c2ccccc12 [3-Indolepropionic acid]
57 | 15.9 | CCCC(=O)Nc1ccc(OCC(O)CNC(C)C)c(C(C)=O)c1 (centres undefined) [Acebutolol]
58 | 3.8 | CC(=O)Nc1ccc(OC2OC(C(=O)O)C(O)C(O)C2O)cc1 (centres undefined) [acetaminophen_glucuronide]
59 | 16.1 | CC(CCC(=O)O)C1CCC2C3C(O)CC4CC(O)CCC4(C)C3CC(O)C12C (centres undefined) [Cholic acid]
60 | 15.6 | O=P(OCC(Cl)CCl)(OCC(Cl)CCl)OCC(Cl)CCl (centres undefined) [Tris(2,3-dichloropropyl) phosphate]
61 | 8.9 | N#Cc1ccccc1Oc1cc(=O)[nH]cn1 [Azoxystrobin-metabolite]
62 | 10.1 | CCOc1ccccc1C(N)=O [2-Ethoxybenzamide]
63 | 15.2 | CC(=O)C1CCC2C3CC=C4CC(O)CCC4(C)C3CCC12C (stereo not drawn) [5-Pregnen-3.beta.-ol-20-one]
64 | 13.6 | COCCCOc1cc(CC(CC(N)C(O)CC(C(=O)NCC(C)(C)C(N)=O)C(C)C)C(C)C)ccc1OC (centres undefined) [Aliskiren]
